{"source": "paper PMC7484799", "about": "“Evolution of isoprenyl diphosphate synthase-like terpene synthases in fungi” (Scientific Reports, 2020)", "key": {"[1]": {"biological_target": "T1, MliILTPS1 (Melampsora lini, UniProt A0A858E7J4)", "T1 construct": "gene ILTPS1; full-length synthesized cDNA in pET-32a, N-terminal His-tag, E. coli BL21(DE3) pLysS", "T1 sequence (A0A858E7J4 1-329)": "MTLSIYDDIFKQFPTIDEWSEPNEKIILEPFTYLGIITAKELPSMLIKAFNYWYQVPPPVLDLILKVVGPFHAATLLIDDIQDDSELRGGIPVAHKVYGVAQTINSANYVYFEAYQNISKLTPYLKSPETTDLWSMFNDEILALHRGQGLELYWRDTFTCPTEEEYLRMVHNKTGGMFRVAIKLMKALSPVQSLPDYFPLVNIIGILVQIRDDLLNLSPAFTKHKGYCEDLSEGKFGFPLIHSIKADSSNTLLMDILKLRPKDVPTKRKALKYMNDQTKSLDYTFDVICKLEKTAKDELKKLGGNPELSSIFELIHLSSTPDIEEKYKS", "experiment": "in vitro terpene synthase assay, SPME GC-MS", "assay_type": "biochemical", "settings": "room temperature, 60 min"}, "[2]": {"biological_target": "T2, MlpILTPS2 (Melampsora laricis-populina, UniProt A0A858E4Y6)", "T2 construct": "gene ILTPS2; full-length cDNA from infected Populus nigra leaves in pET-32a, N-terminal His-tag, E. coli BL21(DE3) pLysS", "T2 sequence (A0A858E4Y6 1-316)": "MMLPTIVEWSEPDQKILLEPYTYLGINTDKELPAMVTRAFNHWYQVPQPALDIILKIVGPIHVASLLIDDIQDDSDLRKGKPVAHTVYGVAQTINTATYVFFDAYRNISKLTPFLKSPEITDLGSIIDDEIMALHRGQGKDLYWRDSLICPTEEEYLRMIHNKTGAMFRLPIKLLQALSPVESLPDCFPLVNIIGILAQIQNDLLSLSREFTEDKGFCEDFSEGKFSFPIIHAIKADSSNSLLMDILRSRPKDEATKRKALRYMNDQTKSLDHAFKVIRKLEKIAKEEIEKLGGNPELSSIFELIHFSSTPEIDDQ", "experiment": "in vitro terpene synthase assay, SPME GC-MS", "assay_type": "biochemical", "settings": "room temperature, 60 min"}, "[3]": {"biological_target": "T3, MliGGDPS (Melampsora lini, UniProt A0A858E6N7)", "T3 construct": "gene GGDPS; full-length synthesized cDNA in pET-32a, N-terminal His-tag, E. coli BL21(DE3) pLysS", "T3 sequence (A0A858E6N7 1-365)": "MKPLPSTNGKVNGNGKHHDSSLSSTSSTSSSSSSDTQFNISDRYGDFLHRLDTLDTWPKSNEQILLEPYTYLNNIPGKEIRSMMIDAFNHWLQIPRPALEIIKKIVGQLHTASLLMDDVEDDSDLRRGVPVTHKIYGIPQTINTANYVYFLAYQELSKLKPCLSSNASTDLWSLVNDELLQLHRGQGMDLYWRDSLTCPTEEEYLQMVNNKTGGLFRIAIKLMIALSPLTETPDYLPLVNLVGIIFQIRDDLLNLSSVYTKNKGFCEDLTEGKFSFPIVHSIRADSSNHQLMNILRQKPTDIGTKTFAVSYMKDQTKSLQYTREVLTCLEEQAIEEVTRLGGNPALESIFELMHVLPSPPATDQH", "experiment": "radiochemical IDS assay, TLC", "assay_type": "biochemical", "settings": "MOPS pH 7.0, 10 mM MgCl2, 30 °C; co-substrate [1-14C]-IDP; product GGDP"}, "[4]": {"biological_target": "T4, MlpGGDPS (Melampsora laricis-populina, UniProt A0A858E7G0)", "T4 construct": "gene GGDPS; full-length cDNA from infected Populus nigra leaves in pET-32a, N-terminal His-tag, E. coli BL21(DE3) pLysS", "T4 sequence (A0A858E7G0 1-364)": "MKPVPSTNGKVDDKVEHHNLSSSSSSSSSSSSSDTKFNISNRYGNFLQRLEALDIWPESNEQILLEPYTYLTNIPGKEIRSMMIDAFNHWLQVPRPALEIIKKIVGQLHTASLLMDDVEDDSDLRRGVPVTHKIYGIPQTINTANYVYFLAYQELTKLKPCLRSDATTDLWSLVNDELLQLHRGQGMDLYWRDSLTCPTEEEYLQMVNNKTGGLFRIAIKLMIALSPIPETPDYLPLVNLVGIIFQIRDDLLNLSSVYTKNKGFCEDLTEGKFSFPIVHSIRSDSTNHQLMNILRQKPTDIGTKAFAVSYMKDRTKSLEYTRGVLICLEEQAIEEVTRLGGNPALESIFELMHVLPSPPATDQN", "experiment": "radiochemical IDS assay, TLC", "assay_type": "biochemical", "settings": "MOPS pH 7.0, 10 mM MgCl2, 30 °C; co-substrate [1-14C]-IDP; product GGDP"}, "[5]": {"biological_target": "T5, MlpILTPS1 (Melampsora laricis-populina, UniProt A0A858E4Y8)", "T5 construct": "gene ILTPS1; full-length cDNA from infected Populus nigra leaves in pET-32a, N-terminal His-tag, E. coli BL21(DE3) pLysS", "T5 sequence (A0A858E4Y8 1-324)": "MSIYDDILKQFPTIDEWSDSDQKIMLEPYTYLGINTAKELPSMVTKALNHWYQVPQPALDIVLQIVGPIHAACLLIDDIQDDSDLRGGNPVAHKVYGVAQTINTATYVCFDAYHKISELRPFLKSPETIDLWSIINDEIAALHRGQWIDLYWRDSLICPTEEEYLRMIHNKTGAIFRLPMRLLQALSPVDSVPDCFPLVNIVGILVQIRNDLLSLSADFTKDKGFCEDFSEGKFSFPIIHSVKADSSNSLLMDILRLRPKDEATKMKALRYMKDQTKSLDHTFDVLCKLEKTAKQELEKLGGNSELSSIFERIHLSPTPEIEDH", "experiment": "in vitro terpene synthase assay, SPME GC-MS", "assay_type": "biochemical", "settings": "room temperature, 60 min"}, "[6]": {"substrate": "CC(C)=CCC/C(C)=C/CC/C(C)=C/CO[P@@](=O)(O)OP(=O)(O)O", "experiment": "radiochemical terpene synthase assay, hexane extraction", "assay_type": "biochemical, Melampsora lini", "settings": "MOPSO pH 7.0, 10 mM MgCl2, 0.05 mM MnCl2, room temperature, labelled compound", "protocol": "radiochemical terpene synthase assay, hexane extraction on MliILTPS2 | the apparent Km values of MliILTPS2 and MliILTPS3 using FDP as substrate were determined"}, "[7]": {"substrate": "CC(C)=CCC/C(C)=C/CC/C(C)=C/CO[P@@](=O)(O)OP(=O)(O)O", "experiment": "radiochemical terpene synthase assay, hexane extraction", "assay_type": "biochemical, Melampsora lini", "settings": "MOPSO pH 7.0, 10 mM MgCl2, 0.05 mM MnCl2, room temperature, labelled compound", "protocol": "radiochemical terpene synthase assay, hexane extraction on MliILTPS3 | the apparent Km values of MliILTPS2 and MliILTPS3 using FDP as substrate were determined", "remark": "listed apart in the source"}}, "data": [{"molecule": "CC(C)=CCC/C(C)=C/CC/C(C)=C/COP(=O)(O)OP(=O)(O)O", "note": "[FDP]", "values": [{"measurement": "in vitro terpene synthase assay, SPME GC-MS", "setting": "[1]; product (E)-nerolidol", "result": "both MliILTPS1 and MliILTPS3 converted FDP to (E)-nerolidol"}, {"measurement": "in vitro terpene synthase assay, SPME GC-MS", "setting": "[2]; product (E)-nerolidol", "result": "MlpILTPS2 catalyzed the formation of (E)-nerolidol"}, {"measurement": "radiochemical IDS assay, TLC", "setting": "[3]", "result": "MliGGDPS was active with DMADP, GDP, and FDP to produce GGDP"}, {"measurement": "radiochemical IDS assay, TLC", "setting": "[4]", "result": "MlpGGDPS catalyzed the formation of GGDP using either DMADP, GDP, or FDP"}, {"measurement": "in vitro terpene synthase assay, SPME GC-MS", "setting": "[5]; product (E,E)-alpha-farnesene", "result": "using FDP as substrate, MlpILTPS1 produced (E,E)-α-farnesene"}]}, {"molecule": "CC(C)=CCC/C(C)=C/COP(=O)(O)OP(=O)(O)O", "note": "[GDP]", "values": [{"measurement": "in vitro terpene synthase assay, SPME GC-MS", "setting": "[1]; product linalool", "result": "both MliILTPS1 and MliILTPS3 converted GDP to linalool"}, {"measurement": "in vitro terpene synthase assay, SPME GC-MS", "setting": "[2]; product linalool", "result": "In contrast, MlpILTPS2 produced only linalool"}, {"measurement": "in vitro terpene synthase assay, SPME GC-MS", "setting": "[5]; products (E)-beta-ocimene (major), linalool (minor)", "result": "When GDP was provided as a substrate, MlpILTPS1 produced (E)-β-ocimene as a major product"}]}, {"molecule": "MliILTPS2 (Melampsora lini) (protein, full-length synthesized cDNA in pET-32a, N-terminal His-tag, E. coli BL21(DE3) pLysS) MSIYDDIFKQFPTIDEWSESNEKIMLEPYTHLGINTAKELPSMVTKAFNHWYQVPQPALDIILQIVGPIHAACLLIDDIQDDSDLRGGNPVAHKVYGVAQTINTATYVCFDAYHKISKLTPFSKSPETTDLWSIINDEIAALHRGQWIDLYWRDSLICPTEEEYLRMIHNKTGAIFRLPIKLLQALSPVDSPPDCFPLVNVVGILVQIRNDLLSLSPDFTKDKGFCEDFSEGKFSFPIIHSVKADSSNSLLIDILRLRPKDEPTKRKALRYMKDQTKSLDHTFDVLCKLEKTAKEELEKLGGNSELSSILELIQVSPIPEIADR", "values": [{"measurement": "Km", "setting": "[6]", "result": "1.9 ± 0.3", "unit": "µM"}, {"measurement": "kcat", "setting": "[6]", "result": "0.01 ± 0.001", "unit": "s⁻¹"}]}, {"molecule": "MliILTPS3 (Melampsora lini) (protein, full-length synthesized cDNA in pET-32a, N-terminal His-tag, E. coli BL21(DE3) pLysS) MSIYDDIFKQFPMIDEWSDSDEKILVEPYTYLGINTAKELPSMVTKAFNHWYQVPQPALDIILQIIGPIHAASLLLDDIQDDSDLRGGNPVAHKVYGVAQTINTATYVCFDAYHKVSQLTPFLKSPETTDLWSIINDEIAALHRGQGIELYWRDSLMCPTEEEYLRMIHNKTGAIFRLPIKLLQALSSVDSPPDCFPLLNIVGILFQIQNDISSLSPDFTKDKGFCEDFSEGKFSFPIIHSVKADSSNSLLMDILRLRPKDEATKRKALRFMKDQTKSLDHTFHVLCKLKKTAQEELEKLGGNSELSSILERIQVSPTPEIEDR", "values": [{"measurement": "Km", "setting": "[7]", "result": "1.6 ± 0.2", "unit": "µM"}, {"measurement": "kcat", "setting": "[7]", "result": "0.05 ± 0.004", "unit": "s⁻¹"}]}]}
